Test results from US20150374718A1, “Zhankuic Acid A and Analogs thereof and Their Use as an Anti-Inflammatory Agent” (National Cheng Kung University, priority 2014, published 2015).

Tests used:
[1] = test system: murine peritoneal macrophages; experiment: Cell viability by MTS and SRB assays; format: cell-based; conditions: up to 30 μM for 72 h; resident or LPS-activated macrophages; listed as ZAA
Description: FIG. 6. ZAA is not cytotoxic to murine peritoneal macrophages. (A) Cells were incubated with various concentrations of ZAA for 72 h. Cell viability was determined by colorimetric tetrazolium (MTS) and sulphorhodamine B (SRB) assays. The absorbance was measured at 490 and 590 nm for MTS and SRB assays, respectively. […] Cell viability was determined by the SRB assay.
We first investigated the anti-inflammatory properties of ZAA purified from T. camphoratus. During inflammation, large amounts of pro-inflammatory mediators, NO, and prostaglandin E2 (PGE2) are generated by iNOS and COX2.

[2] = test system: NF-κB, MAPK, and Akt signaling pathways; experiment: Immunoblot of NF-κB, MAPK and Akt signaling in LPS-stimulated RAW264.7 cells; format: cell-based, murine; conditions: ZAA 1 h, then LPS 30 min
Description: FIG. 1. ZAA inhibits the production of inflammation-related molecules in LPS- and IFN-γ-stimulated murine macrophages. […] Total cell lysates were subjected to immunoblotting for detecting COX2 and iNOS. Relative expression levels of COX2 and iNOS protein were quantified by densitometric analysis with ImageJ software and normalized according to the β-actin reference band. […] The presence of nitrite in the culture medium was analyzed by the Griess assay and used as an indication of NO levels (n=4; *p<0.05 and ***p<0.001 vs. LPS- or IFN-γ-induced cells). (C) Raw264.7 cells were cotransfected with pNFKB-Luc and pβ-actin-LacZ plasmids. […] Total cell lysates were harvested, and their luciferase activities were determined and normalized on the basis of β-galactosidase activities. […] Numbers below the blots in D and those shown in the table below the blots in E represent the relative expression levels quantified by densitometric analysis with ImageJ software and normalized according to the β-actin reference bands. […]
Cell lysates were analyzed by immunoblotting with primary antibodies against pIKKα/β, IkBα, pNF-κBp65, pERK, ERK, pJNK, JNK, pAkt, Akt, pp38, p38, and β-actin, followed by appropriate secondary antibodies Immunoreactive protein bands were detected using an enhanced chemiluminescence (ECL) kit (Pierce Biotechnology, Rockford, Ill.). […]

[3] = molecular target: T1, recombinant human MD-2 (Homo sapiens, UniProt Q9Y6Y9); experiment: Native PAGE binding analysis with anti-MD-2 antibodies; conditions: MD-2 0.15 μg, 3 h at 37° C.
T1 construct: purchased R&D
T1 sequence (Q9Y6Y9 19-160): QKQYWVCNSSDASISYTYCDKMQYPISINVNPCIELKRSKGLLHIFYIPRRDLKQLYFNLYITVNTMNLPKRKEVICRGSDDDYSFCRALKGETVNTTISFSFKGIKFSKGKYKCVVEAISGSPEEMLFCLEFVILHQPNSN
Source text: FIG. 2. ZAA interacts with the hydrophobic binding pocket of MD-2. […] The amino acids G1y110-Asn158 shown in magenta, which reside within the immunogenic peptide fragment of MD-2 amino acids 110-160, are around the ZAA-binding site in the ribbon model of MD-2. Gly110 and Asn158 are indicated by arrows. (B) Interactions involved in the binding of ZAA to the hydrophobic amino acid residues within the MD-2 binding pocket are shown. […] Similar results were obtained in three independent experiments.
Samples were subjected to native PAGE, and the levels of TLR4-associated or free MD-2 were detected by immunoblotting with two anti-MD-2 antibodies, rabbit polyclonal antibody against MD-2 amino acids 110-160 (abcam, Cambridge, Mass.) and mouse monoclonal antibody against MD-2 amino acids 2-160 (abcam). Signals were detected via ECL.

C=C(CC[C@@H](C)[C@H]1CC[C@H]2C3=C(C(=O)C[C@]12C)[C@@]1(C)CCC(=O)[C@@H](C)[C@@H]1CC3=O)C(C)C(=O)O (stereo partly shown) [No. 1, Zhankuic acid A]
cytotoxic effects (MTS and SRB) [1]: did not exert any cytotoxic effects | LPS-induced phosphorylation of ERK, JNK, p38, and Akt [2]: inhibited | LPS-stimulated NF-κBp65 phosphorylation [2]: significantly prevented | recognition of anti-MD-2 antibodies (aa 110-160 and 2-160) to native MD-2 [3]: reduced the recognition of both antibodies to native MD-2
